From DBAASP come the findings set out here.

Test systems include Candida albicans SC5314; Candida krusei ATCC 6258; Escherichia coli K-12.
Common to all, as to assay: ≥ marks a high value that may be exact or a test limit, other limits are often not marked, values filed in µg/mL are converted to µM
The subject of experiment [1] is Acinetobacter baumannii MTCC 9829.
Experiment [2] relates to Alcaligenes faecalis MTCC 1937.
Experiment [3] relates to Alkalihalobacillus alcalophilus MTCC 860.
The subject of experiment [4] is Bordetella bronchiseptica MTCC 6837.
Experiment [5] has as its system Citrobacter freundii MTCC 1658.
In experiment [6] the test system is Citrobacter koseri MTCC 1657.
The subject of experiment [7] is Corynebacterium glutamicum MTCC 2679.
Experiment [8] deals with Enterococcus faecalis MTCC 439.
Experiment [9] deals with Escherichia coli K12 MG1655.
The subject of experiment [10] is Haemophilus influenzae MTCC 621.
Experiment [11] relates to Klebsiella aerogenes MTCC 111.
Experiment [12] deals with Klebsiella oxytoca MTCC 2275.
In experiment [13] the test system is Klebsiella pneumoniae MTCC 7407.
The test system of experiment [14] is Pluralibacter gergoviae MTCC 3826.
Experiment [15] deals with Proteus mirabilis MTCC 3158.
Experiment [16] relates to Proteus vulgaris MTCC 1771.
Experiment [17] relates to Pseudomonas aeruginosa MTCC 3542.
The test system of experiment [18] is Salmonella enterica MTCC 9844.
Experiment [19] concerns Salmonella enterica subsp. enterica serovar Typhimurium ATCC 14028.
Experiment [20] concerns Shigella boydii MTCC 11947.
Experiment [21] relates to Shigella flexneri MTCC 1457.
Experiment [22] relates to Staphylococcus aureus MTCC 3160.
Experiment [23] concerns Staphylococcus haemolyticus MTCC 3383.
In experiment [24] the test system is Stenotrophomonas maltophilia MTCC 1890.
The test system of experiment [25] is Vibrio cholerae MTCC 3904.
Experiment [26] relates to Bacillus subtilis ATCC 6051.
For experiment [27], the system named is Candida albicans ATCC 90028.
Experiment [28] deals with Candida parapsilosis ATCC 22019.
The test system of experiment [29] is Pseudomonas aeruginosa PAO1.
Experiment [30] relates to Staphylococcus aureus ATCC 6538P.
The test system of experiment [31] is Staphylococcus aureus ATCC 25923.
The subject of experiment [32] is Staphylococcus aureus USA 300 LAC.
In experiment [33] the test system is Staphylococcus aureus USA 300.
In experiment [34] the test system is Escherichia coli ATCC 25922.
Experiment [35] concerns Klebsiella pneumoniae ATCC 13883.

In brackets after ≈: the same amount, converted by molar mass.

For `CSCC[C@H](NC(=O)[C@H](CCCCN)NC(=O)[C@H](CCCCN)NC(=O)[C@H](CC(C)C)NC(=O)[C@H](C)N)C(=O)N[C@@H](CC(C)C)C(=O)N[C@@H](CCCN=C(N)N)C(=O)N[C@@H](CC(C)C)C(=O)N[C@@H](C)C(=O)N[C@@H](CCCCN)C(=O)N[C@@H](CCCN=C(N)N)C(=O)N[C@@H](CC(C)C)C(=O)N[C@@H](CO)C(=O)O` [ALKKMLRLAKRLS], the MIC was at least 83.8 µM in experiment [1]; at least 83.8 µM in experiment [2]; at least 83.8 µM in experiment [3]; 5.24 µM (≈ 8 µg/mL) in [4]; at least 83.8 µM in experiment [5]; at least 41.9 µM in [6]. The MIC in experiment [7] was 10.5 µM (≈ 16 µg/mL); in experiment [8], at least 83.8 µM; in experiment [9] it was at least 41.9 µM; in experiment [10], at least 41.9 µM; in experiment [11], at least 83.8 µM; in experiment [12] it was at least 83.8 µM. The MIC in experiment [13] is at least 83.8 µM; in experiment [14], at least 83.8 µM; in experiment [15], at least 83.8 µM; in experiment [16], at least 83.8 µM; in experiment [17], at least 83.8 µM; in experiment [18], 20.9 µM (≈ 32 µg/mL). The MIC in [19] was over 83.8 µM; in experiment [20], at least 41.9 µM; in experiment [21], 20.9 µM (≈ 32 µg/mL); in experiment [22], at least 83.8 µM; in experiment [23], at least 83.8 µM; in experiment [24] it was at least 83.8 µM. This compound also returned an MIC in experiment [25] of at least 83.8 µM.
On to `CC(C)C[C@H](NC(=O)[C@H](C)N)C(=O)N[C@@H](Cc1c[nH]c2ccccc12)C(=O)N[C@@H](Cc1cnc[nH]1)C(=O)N[C@@H](Cc1cnc[nH]1)C(=O)N[C@@H](CC(C)C)C(=O)N[C@@H](CC(C)C)C(=O)N[C@@H](Cc1cnc[nH]1)C(=O)N[C@@H](Cc1cnc[nH]1)C(=O)N[C@@H](CC(C)C)C(=O)N[C@@H](CC(C)C)C(=O)N[C@@H](Cc1cnc[nH]1)C(=O)N[C@@H](CO)C(=O)N[C@@H](C)C(=O)N[C@@H](Cc1cnc[nH]1)C(=O)N[C@@H](Cc1cnc[nH]1)C(=O)N[C@@H](CC(C)C)C(=O)NCC(N)=O` [ALWHHLLHHLLHSAHHLG], for which the MIC in experiment [26] is 1.88 µM (≈ 3.99 µg/mL).
Consider `CC[C@H](C)[C@H](NC(=O)CN)C(=O)N[C@@H](Cc1c[nH]c2ccccc12)C(=O)N[C@@H](CCCCN)C(=O)N[C@@H](CCCCN)C(=O)N[C@@H](Cc1c[nH]c2ccccc12)C(=O)N[C@H](C(=O)N[C@@H](CCCCN)C(=O)N[C@@H](CCCCN)C(=O)N[C@H](C(=O)N[C@H](C(=O)N[C@@H](CC(N)=O)C(=O)N[C@H](C(=O)N[C@@H](CC(C)C)C(=O)N[C@@H](CCCCN)C(=O)N[C@@H](CC(N)=O)C(=O)N[C@@H](CC(C)C)C(=O)N[C@@H](Cc1ccccc1)C(N)=O)C(C)C)C(C)C)C(C)C)[C@@H](C)CC` [GIWKKWIKKVVNVLKNLF], for which the MIC in experiment [27] is 14.5 µM (≈ 32 µg/mL); in the experiment on Candida albicans SC5314, 7.23 µM (≈ 16 µg/mL); against Candida krusei ATCC 6258, 14.5 µM (≈ 32 µg/mL); in experiment [28], 7.23 µM (≈ 16 µg/mL).
With `CC[C@H](C)[C@H](NC(=O)CN)C(=O)N[C@@H](Cc1c[nH]c2ccccc12)C(=O)N[C@@H](CCCCN)C(=O)N[C@@H](CCCCN)C(=O)N[C@@H](Cc1c[nH]c2ccccc12)C(=O)N[C@H](C(=O)N[C@@H](CCCCN)C(=O)N[C@@H](CCCCN)C(=O)N[C@@H](Cc1c[nH]c2ccccc12)C(=O)N[C@@H](CC(C)C)C(=O)N[C@@H](CCCCN)C(=O)N[C@@H](CCCCN)C(=O)N[C@@H](CC(C)C)C(=O)N[C@@H](CC(C)C)C(=O)N[C@@H](CCCCN)C(=O)N[C@@H](CCCCN)C(=O)N[C@@H](CC(C)C)C(=O)N[C@@H](Cc1c[nH]c2ccccc12)C(=O)N[C@@H](CCCCN)C(=O)N[C@@H](CCCCN)C(=O)NCC(=O)O)[C@@H](C)CC` [GIWKKWIKKWLKKLLKKLWKKG], the MIC was 22.6 µM (≈ 64 µg/mL) in experiment [27], 11.3 µM (≈ 32 µg/mL) in the experiment on Candida albicans SC5314, 22.6 µM (≈ 64 µg/mL) in the experiment on Candida krusei ATCC 6258 and 22.6 µM (≈ 64 µg/mL) in experiment [28].
Turning to `CC(C)C[C@H](NC(=O)[C@H](CC(C)C)NC(=O)[C@H](CCCCN)NC(=O)[C@H](CC(C)C)NC(=O)[C@H](CC(C)C)NC(=O)[C@H](CCCCN)NC(=O)[C@H](CCCCN)NC(=O)[C@H](CC(C)C)NC(=O)[C@@H](N)CC(C)C)C(N)=O` [LLKKLLKLL], the MIC (in [26]; in the experiment with Escherichia coli K-12; in experiment [29]; in experiment [30]) was 1.56 µM (≈ 1.69 µg/mL) each time.
On to `CC[C@H](C)[C@H](NC(=O)[C@H](CC(=O)O)NC(=O)[C@H](Cc1c[nH]c2ccccc12)NC(=O)[C@H](CC(C)C)NC(=O)[C@@H](N)CCCN=C(N)N)C(=O)N[C@H](C(=O)N[C@@H](CCCN=C(N)N)C(=O)N[C@@H](CCCN=C(N)N)C(=O)N[C@@H](Cc1c[nH]c2ccccc12)C(=O)N[C@H](C(=O)NCC(=O)N[C@@H](Cc1c[nH]c2ccccc12)C(=O)N[C@@H](CC(C)C)C(N)=O)C(C)C)C(C)C` [RLWDIVRRWVGWL], for which the MIC in experiment [29] was determined as 9.12 µM (≈ 16 µg/mL); in [31], 2.28 µM (≈ 4 µg/mL); in experiment [32] it was 4.56 µM (≈ 8 µg/mL); in experiment [33] it was 1.14 µM (≈ 2 µg/mL).
`CC[C@H](C)[C@H](NC(=O)[C@H](CCCN=C(N)N)NC(=O)[C@H](CCCN=C(N)N)NC(=O)[C@H](CC(C)C)NC(=O)[C@H](Cc1c[nH]c2ccccc12)NC(=O)[C@H](Cc1c[nH]c2ccccc12)NC(=O)[C@@H](N)Cc1c[nH]c2ccccc12)C(=O)N[C@@H](Cc1c[nH]c2ccccc12)C(N)=O` [WWWLRRIW]: the MIC in experiment [34] is 6.2 µM (≈ 8.06 µg/mL); in [35] it was 25 µM (≈ 32.5 µg/mL); in experiment [29], over 50 µM; in experiment [32], 3.1 µM (≈ 4.03 µg/mL); in [33], 3.1 µM (≈ 4.03 µg/mL).
On to `CC[C@H](C)[C@H](NC(=O)[C@H](CCCCN)NC(=O)[C@H](CCCN=C(N)N)NC(=O)[C@H](CC(C)C)NC(=O)[C@H](Cc1c[nH]c2ccccc12)NC(=O)[C@H](Cc1c[nH]c2ccccc12)NC(=O)[C@H](Cc1c[nH]c2ccccc12)NC(=O)[C@@H](N)Cc1c[nH]c2ccccc12)C(N)=O` [WWWWLRKI], for which the results for the MIC in [34], in [35] and in [32] were 12.5 µM (≈ 15.9 µg/mL), 8.8 µM (≈ 11.2 µg/mL) and 2.16 µM (≈ 2.74 µg/mL), respectively.
